# Measured values from patent publication US12115178B2, “Acylated active agents and methods of their use for the treatment of autoimmune disorders” (Flagship Pioneering Innovations V, Inc., priority 2018, dated 2024).
# Legend:
# Type in all cases: in vitro ADME
# [1] = Assay 1. Stability in Simulated Gastric Fluid (SGF)
# Outline: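 Degradation rate from LC/MS of acetonitrile-quenched aliquots (T0, then regular intervals). Fresh SGF (pH 1.6 NaCl, FaSSIF powder, pepsin 0.1 mg/mL) held compound at 1 μM final, 37° C; 1 mM DMSO stock.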
# [2] = Assay 2. Stability in Simulated Intestinal Fluid (SIF); settings: SIF pH 6.7 with pancreatin, 1 μM, 37° C.
# Outline: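 Degradation rates came from LC/MS of acetonitrile-quenched samples drawn at intervals, starting at T0. The medium was freshly made pH 6.7 FaSSIF containing pancreatin, and test compound was present at 1 µM while being shaken at 37 °C.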
# [3] = Assay 3. In vitro Colonic Material Stability Assay; settings: colonic material slurry, anaerobic, 1 or 10 μM
# [4] = SGF pH 1.6 with pepsin, 1 μM, 37° C.
Compound,"Assay 1 (SGF) (% Remaining @ 1 hour) [1, 4]",Assay 2 (SIF) (% @ Remaining 4 hours) [2],Assay 3 (% Remaining at 24 h) [3],"Assay 1 (SGF) (% Remaining @ 1 hour) ([1]; Batch 1, SGF)","Assay 1 (SGF) (% Remaining @ 1 hour) ([1]; Batch 2, SGF)"
"CCC(=O)O[C@@H]1[C@@H](OC(=O)CC)[C@@H](OC(=O)CC)C(O)O[C@H]1C (stereo partly drawn) [Compound 113, (3R,4R,5S,6S)-2-hydroxy-6-methyl-4,5-bis(propanoyloxy)oxan-3-yl propanoate]",C (>75% of the tested compound remaining),A (<25% of the tested compound remaining),C (>75% of the tested compound remaining),–,–
"CCC(=O)OC[C@H]1O[C@H](OC(=O)Cc2c[nH]c3ccccc23)[C@H](OC(=O)CC)[C@@H](OC(=O)CC)[C@@H]1OC(=O)CC [Compound 114, [(2R,3R,4S,5R,6R)-6-{[2-(1H-indol-3-yl)acetyl]oxy}-3,4,5-tris(propanoyloxy)oxan-2-yl]methyl propanoate]",C (>75% of the tested compound remaining),A (<25% of the tested compound remaining),A (<25% of the tested compound remaining),–,–
"CCC(=O)O[C@@H]1[C@@H](OC(=O)CC)[C@H](C)O[C@@H](OC(=O)Cc2c[nH]c3ccccc23)[C@@H]1OC(=O)CC [Compound 115, (2S,3R,4R,5S,6S)-2-{[2-(1H-indol-3-yl)acetyl]oxy}-6-methyl-4,5-bis(propanoyloxy)oxan-3-yl propanoate]",C (>75% of the tested compound remaining),A (<25% of the tested compound remaining),A (<25% of the tested compound remaining),–,–
"CCC(=O)O[C@@H]1[C@@H](OC(=O)CC)[C@@H](OC(=O)Cc2c[nH]c3ccccc23)OC[C@H]1OC(=O)CC [Compound 117, (2R,3R,4S,5R)-2-{[2-(1H-indol-3-yl)acetyl]oxy}-4,5-bis(propanoyloxy)oxan-3-yl propanoate]",C (>75% of the tested compound remaining),A (<25% of the tested compound remaining),A (<25% of the tested compound remaining),–,–
"CCC(=O)O[C@H]1[C@H](OC(=O)CC)[C@H](OC(=O)CCc2c[nH]c3ccccc23)O[C@@H](C)[C@H]1OC(=O)CC [Compound 123, (2S,3S,4R,5R,6S)-6-methyl-3,4,5-tris(propanoyloxy)oxan-2-yl 3-(1H-indol-3-yl)propanoate]",–,C (>75% of the tested compound remaining),A (<25% of the tested compound remaining),C (>75% of the tested compound remaining),B (25-75% of the tested compound remaining)
"CCC(=O)O[C@@H]1[C@@H](OC(=O)CC)[C@@H](OC(=O)CCc2c[nH]c3ccccc23)OC[C@@H]1OC(=O)CC [Compound 126, (2R,3R,4S,5S)-3,4,5-tris(propanoyloxy)oxan-2-yl 3-(1H-indol-3-yl)propanoate]",C (>75% of the tested compound remaining),A (<25% of the tested compound remaining),A (<25% of the tested compound remaining),–,–
"O=C(CCc1c[nH]c2ccccc12)O[C@H]1OC[C@H](OC(=O)CCc2c[nH]c3ccccc23)[C@H](OC(=O)CCc2c[nH]c3ccccc23)[C@H]1OC(=O)CCc1c[nH]c2ccccc12 [Compound 149, (2R,3R,4S,5S)-3,4,5-tris({[3-(1H-indol-3-yl)propanoyl]oxy})oxan-2-yl 3-(1H-indol-3-yl)propanoate]",B (25-75% of the tested compound remaining),A (<25% of the tested compound remaining),A (<25% of the tested compound remaining),–,–
"CO[C@H]1O[C@H](COC(C)=O)[C@@H](OC(C)=O)[C@H](OC(C)=O)[C@@H]1OC(C)=O [Compound 161, (2R,3R,4S,5S,6S)-2-(acetoxymethyl)-6-methoxytetrahydro-2H-pyran-3,4,5-triyl triacetate]",C (>75% of the tested compound remaining),C (>75% of the tested compound remaining),B (25-75% of the tested compound remaining),–,–
"CC(=O)OC[C@H]1O[C@@H](OC(C)=O)[C@H](N)[C@@H](OC(C)=O)[C@@H]1OC(C)=O [Compound 162, (2S,3R,4R,5S,6R)-6-(acetoxymethyl)-3-aminotetrahydro-2H-pyran-2,4,5-triyl triacetate]",C (>75% of the tested compound remaining),A (<25% of the tested compound remaining),C (>75% of the tested compound remaining),–,–
"CC(=O)O[C@H]1O[C@H](C(=O)O)[C@@H](OC(C)=O)[C@H](OC(C)=O)[C@H]1OC(C)=O [Compound 163, (2S,3S,4S,5R,6R)-3,4,5,6-tetraacetoxytetrahydro-2H-pyran-2-carboxylic acid]",C (>75% of the tested compound remaining),C (>75% of the tested compound remaining),B (25-75% of the tested compound remaining),–,–
"CCC(=O)Oc1cc(OC(=O)CC)c2c(=O)c(O)c(-c3ccc(OC(=O)CC)c(OC(=O)CC)c3)oc2c1 [Compound 165, 2-[3,4-bis(propanoyloxy)phenyl]-3-hydroxy-4-oxo-7-(propanoyloxy)-4H-chromen-5-yl propanoate]",B (25-75% of the tested compound remaining),A (<25% of the tested compound remaining),A (<25% of the tested compound remaining),–,–
"CCCC(=O)Oc1ccc(-c2oc3cc(OC(=O)CCC)cc(OC(=O)CCC)c3c(=O)c2OC(=O)CCC)cc1 [Compound 166, 4-[3,5,7-tris(butanoyloxy)-4-oxo-4H-chromen-2-yl]phenyl butanoate]",B (25-75% of the tested compound remaining),A (<25% of the tested compound remaining),A (<25% of the tested compound remaining),–,–
"CCC(=O)Oc1ccc(-c2oc3cc(OC(=O)CC)cc(OC(=O)CC)c3c(=O)c2OC(=O)CC)cc1 [Compound 167, 4-[4-oxo-3,5,7-tris(propanoyloxy)-4H-chromen-2-yl]phenyl propanoate]",B (25-75% of the tested compound remaining),A (<25% of the tested compound remaining),A (<25% of the tested compound remaining),–,–
"CCC(=O)Oc1ccc(-c2cc(=O)c3c(O)cc(OC(=O)CC)cc3o2)cc1 [Compound 168, 5-hydroxy-4-oxo-2-[4-(propanoyloxy)phenyl]-4H-chromen-7-yl propanoate]",B (25-75% of the tested compound remaining),A (<25% of the tested compound remaining),A (<25% of the tested compound remaining),–,–
"CCCC(=O)Oc1ccc(-c2cc(=O)c3c(OC(=O)CCC)cc(OC(=O)CCC)cc3o2)cc1 [Compound 170, 5-(butanoyloxy)-2-[4-(butanoyloxy)phenyl]-4-oxo-4H-chromen-7-yl butanoate]",B (25-75% of the tested compound remaining),A (<25% of the tested compound remaining),A (<25% of the tested compound remaining),–,–
"CCC(=O)Oc1ccc(-c2cc(=O)c3c(OC(=O)CC)cc(OC(=O)CC)cc3o2)cc1 [Compound 172, 4-oxo-7-(propanoyloxy)-2-[4-(propanoyloxy)phenyl]-4H-chromen-5-yl propanoate]",C (>75% of the tested compound remaining),A (<25% of the tested compound remaining),B (25-75% of the tested compound remaining),–,–
"CCCC(=O)O[C@H]1[C@@H](Oc2ccc(N)cc2C(=O)O)OC[C@@H](OC(=O)CCC)[C@H]1OC(=O)CCC [Compound 185, 5-amino-2-(((2R,3R,4R,5R)-3,4,5-tris(butyryloxy)tetrahydro-2H-pyran-2-yl)oxy)benzoic acid]",C (>75% of the tested compound remaining),B (25-75% of the tested compound remaining),B (25-75% of the tested compound remaining),–,–
"CCCC(=O)O[C@@H]1[C@@H](OC(=O)CCC)[C@H](Oc2ccccc2C(=O)O)OC[C@H]1OC(=O)CCC [Compound 186, 2-{[(2S,3R,4S,5R)-3,4,5-tris(butanoyloxy)oxan-2-yl]oxy}benzoic acid]",C (>75% of the tested compound remaining),A (<25% of the tested compound remaining),A (<25% of the tested compound remaining),–,–
"CCCC(=O)Oc1cc(OC(=O)CCC)c2c(c1)O[C@H](c1ccc(OC(=O)CCC)c(OC(=O)CCC)c1)[C@H](OC(=O)CCC)C2 [Compound 193, (2R,3R)-2-[3,4-bis(butanoyloxy)phenyl]-5,7-bis(butanoyloxy)-3,4-dihydro-2H-1-benzopyran-3-yl butanoate]",C (>75% of the tested compound remaining),A (<25% of the tested compound remaining),A (<25% of the tested compound remaining),–,–
"CCC(=O)Oc1cc(OC(=O)CC)c2c(c1)O[C@H](c1ccc(OC(=O)CC)c(OC(=O)CC)c1)[C@H](OC(=O)CC)C2 [Compound 194, (2R,3R)-2-[3,4-bis(propanoyloxy)phenyl]-5,7-bis(propanoyloxy)-3,4-dihydro-2H-1-benzopyran-3-yl propanoate]",B (25-75% of the tested compound remaining),A (<25% of the tested compound remaining),A (<25% of the tested compound remaining),–,–
